Measured values reported in ChEMBL document CHEMBL1201862, “PubChem BioAssay data set” (2004).
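These data come from cells grown in 96-well plates and exposed to compound for 48 hours at five concentrations. Abbreviation: GI50, concentration required for 50% inhibition of growth.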 Activity calls are given as the source filed them. Rule as the data show it: active = GI50 up to about 1.1 µM and inactive = higher.

How the values were obtained:
Assay in all cases: NCI-60 cell line screen, 48 h
[1] = system: OVCAR-8
[2] = system: OVCAR-5
[3] = system: MDA-MB-435
[4] = system: CAKI-1
[5] = system: RPMI-8226
[6] = system: MDA-MB-231
[7] = system: DU-145
[8] = system: RXF 393
[9] = system: TK-10
[10] = system: HCT-116
[11] = system: HOP-92
[12] = system: IGROV-1
[13] = system: SK-OV-3
[14] = system: 786-0
[15] = system: SF-295
[16] = system: U-251
[17] = system: LOX IMVI
[18] = system: SF-268
[19] = system: HCT-15
[20] = system: SR

SMILES | GI50 [1] | GI50 [2] | GI50 [3] | GI50 [4] | GI50 [5] | GI50 [6] | GI50 [7] | GI50 [8] | GI50 [9] | GI50 [10] | GI50 [11] | GI50 [12] | GI50 [13] | GI50 [14] | GI50 [15] | GI50 [16] | GI50 [17] | GI50 [18] | GI50 [19] [µM] | GI50 [20]
O=CNNC(=O)CSc1nc2ccc(I)cc2c(=O)n1Cc1ccccc1 | 46.5 µM (inactive) | 61.8 µM (inactive) | 40.5 µM (inactive) | 22.2 µM (inactive) | < 0.01 µM (active) | 29.3 µM (inactive) | 43.7 µM (inactive) | 29.1 µM (inactive) | 38.6 µM (inactive) | 20.4 µM (inactive) | 25.4 µM (inactive) | 32.3 µM (inactive) | 49.7 µM (inactive) | 31.3 µM (inactive) | 40.6 µM (inactive) | 36.6 µM (inactive) | 25.4 µM (inactive) | 35.4 µM (inactive) | 40.7 | 32.2 µM (inactive)
C#C[C@]1(O)CC[C@H]2[C@@H]3CCC4=C/C(=N\OCCN(CC)CC)CC[C@]4(C)[C@H]3CC[C@@]21C | 7.24 µM (inactive) | 12.9 µM (inactive) | 3.27 µM (inactive) | 7.93 µM (inactive) | 2.53 µM (inactive) | 13.6 µM (inactive) | 10.4 µM (inactive) | 2.41 µM (inactive) | 6.7 µM (inactive) | 3.44 µM (inactive) | 16.5 µM (inactive) | 3.85 µM (inactive) | 9.4 µM (inactive) | 2.7 µM (inactive) | 2.16 µM (inactive) | 8.04 µM (inactive) | 3.13 µM (inactive) | 2.92 µM (inactive) | 5.6 | 2.94 µM (inactive)
COn1cc(CO)c2ccccc21 | > 100 µM (inactive) | 7.96 µM (inactive) | > 100 µM (inactive) | 3.37 µM (inactive) | 66.5 µM (inactive) | > 100 µM (inactive) | 53.1 µM (inactive) | 21.5 µM (inactive) | 5.96 µM (inactive) | 45.3 µM (inactive) | > 61.2 µM (inactive) | 22 µM (inactive) | > 100 µM (inactive) | > 86.9 µM (inactive) | > 100 µM (inactive) | 69.7 µM (inactive) | > 100 µM (inactive) | > 88.7 µM (inactive) | > 88.7 | 31.8 µM (inactive)
COc1ccc(NC(C)=O)c(C(=O)CCNC(C)=O)c1 | > 100 µM (inactive) | > 100 µM (inactive) | > 100 µM (inactive) | > 100 µM (inactive) | > 100 µM (inactive) | > 100 µM (inactive) | > 100 µM (inactive) | > 100 µM (inactive) | > 100 µM (inactive) | > 100 µM (inactive) | > 100 µM (inactive) | > 100 µM (inactive) | > 100 µM (inactive) | > 100 µM (inactive) | > 100 µM (inactive) | > 100 µM (inactive) | > 100 µM (inactive) | > 100 µM (inactive) | > 100 | > 100 µM (inactive)
